Measurements reported in patent publication EP2272817A1, “PAI-1 INHIBITOR” (Institute of Medicinal Molecular Design, Inc., priority 2008, dated 2009).
Like-named read-outs stand apart in the source and are kept apart here.

What was measured:
[1] = tested on: Rat AV Shunt Model; experiment: Test Example 5: Anti-thrombotic Activity (Rat AV Shunt Model), thrombus weight; assay type: in vivo, Crlj: CD (SD) rats; conditions: orally for 4 days, male rats, n=5, average ± S.E., vehicle 72.7±2.7
Procedure: AV shunt model using 7-week old male Crlj: CD (SD) rats were prepared, and anti thrombotic activities when the compounds according to the present invention were administered orally were examined.
Required amount of the test compounds were weighed and suspended by adding 0.5 % CMC (carboxymethylcellulose)-Na solution little by little, and the solutions (10 mg/kg or 30 mg/kg solution) were prepared so that their final concentration became 2 mg/ml or 6 mg/ml using a graduated cylinder. 5 ml was prepared for 1 course.
To 7-week old Crlj: CD (SD) male rats, 5 ml/kg of vehicle (0.5 % CMC-Na solution) or 5 ml/kg of the administering solution of the test compound (10 mg/kg or 30 mg/kg) were administered orally for 4 days. The administration on the 4th day was carried out about 1 hour before the following perfusion start.
On the connected part where the silk thread was through, parafilm was wrapped around to avoid blood leakage. Rats were anesthetized with pentobarbital (50 mg/kg; intraperitoneally). Saline was filled in the above catheter, and each of the ends of the catheter was inserted in right carotid artery and […], respectively, and blood was circulated. 30 minutes later, the catheter was pinched with forceps to stop blood flow, and tube parts where the silk thread was through were cut and removed. The silk thread was carefully removed from the tubes, remaining wet weight was weighed after removing the liquid phase with filter paper, and further subtraction of the weight of the silk thread, gave the thrombus weight.
For the thrombus weight in each group, an average vale ± standard error (S.E.) was calculated. For the significance test between the vehicle administered group and the compound according to the present invention administered group, Dunnett's multiple comparison was carried out (significance level 5 %). For the test, the SAS System Release 8.2 (TS2MO) for Windows (Registered Trademark) (SAS Institute Inc.) and its coorperative system EXSAS Ver. 7.10 (Arm Systex Co. Ltd.) were employed.

[2] = molecular target: T1, recombinant human PAI-1 (Homo sapiens, UniProt P05121); experiment: biochemical
T1 sequence (P05121 24-402): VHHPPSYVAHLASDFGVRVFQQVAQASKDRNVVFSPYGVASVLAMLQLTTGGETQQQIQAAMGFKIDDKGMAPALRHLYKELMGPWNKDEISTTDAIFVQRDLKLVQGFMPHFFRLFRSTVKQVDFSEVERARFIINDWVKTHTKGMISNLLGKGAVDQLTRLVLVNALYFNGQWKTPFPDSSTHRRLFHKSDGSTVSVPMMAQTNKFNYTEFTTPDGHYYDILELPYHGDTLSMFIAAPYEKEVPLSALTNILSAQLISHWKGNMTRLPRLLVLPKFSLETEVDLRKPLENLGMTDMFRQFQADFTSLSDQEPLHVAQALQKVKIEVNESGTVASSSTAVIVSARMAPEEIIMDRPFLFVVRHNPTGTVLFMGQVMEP

[3] = molecular target: T2, recombinant rat PAI-1 (Rattus norvegicus, UniProt P20961); experiment: biochemical; conditions: read-out: Inhibition Rate of PAI-1 Activity (%)
T2 sequence (P20961 24-402): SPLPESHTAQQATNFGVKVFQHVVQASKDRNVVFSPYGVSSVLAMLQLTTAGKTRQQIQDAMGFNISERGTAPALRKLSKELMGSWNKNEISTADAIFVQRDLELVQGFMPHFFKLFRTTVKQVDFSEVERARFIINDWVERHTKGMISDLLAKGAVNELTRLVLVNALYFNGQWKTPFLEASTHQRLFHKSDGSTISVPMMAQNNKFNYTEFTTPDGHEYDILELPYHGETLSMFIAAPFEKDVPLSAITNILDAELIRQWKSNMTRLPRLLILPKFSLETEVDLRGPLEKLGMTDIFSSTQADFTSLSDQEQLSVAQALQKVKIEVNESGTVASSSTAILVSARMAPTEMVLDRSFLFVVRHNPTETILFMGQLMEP

[4] = molecular target: T1, recombinant human PAI-1; experiment: Test Example 2: Human PAI-1 Inhibitory Activity (pH 7.4 HEPES buffer, 10 minutes incubation with two-chain tPA); assay type: biochemical; design: purchased Molecular Innovations, Inc; conditions: read-out: Inhibition Rate of PAI-1 Activity (%)
Procedure: 0.1 M HEPES, 0.1 M NaCl. 1 mM EDTA. 0.1 % Polyethylene glycol 8,000 (Hampton Research Corporation),
2 mM Dimethyldecylphoshine oxide [Apo-10] (Fluka Corporation)

[5] = molecular target: T1, recombinant human PAI-1; experiment: Test Example 4: Human PAI-1 Inhibitory Activity (amount of PAI-1 bound to plate-coated one-chain tPA, ELISA); assay type: biochemical; design: purchased Molecular Innovations, Inc; conditions: human PAI-1 bound to tPA, read-out: Inhibition Rate of PAI-1 Activity (%); for inhibition at 0.3 µM: Compound Concentration 0.3µM; for inhibition at 1 µM: Compound Concentration 1µM; for inhibition at 3 µM: Compound Concentration 3µM
Procedure: 100 µl of tPA solution, where one-chain recombinant tPA (hereinafter reffered to as tPA; American diagnostica, inc.) had been diluted with Buffer A to acheive a concentration of 10 µg/ml, was added to each well of a 96-well plate (Nunc Maxisorp), and the plate was incubated for one night at 4 °C to be coated with tPA. Then, after suction of tPA solution from the 96-well plate, the plate was rinsed successively with Buffer A and Buffer B. To Buffer B, solutions of the compound according to the present invention dissolved with DMSO (final DMSO concentration: 0.2 %) and recombinant human PAI-1 (Molecular Innovations, Inc.) were added. The mixtures were blended so that the final concentrations would be 0.1 to 3.0 µM and 50 ng/ml respectively, and were incubated for 15 minutes on ice. These mixed solutions were added to the rinsed 96-well plate at 100 µl/well, and incubated for 60 minutes at room temperature. To prepare a calibration curve, PAI-1 solutions without the compound according to the present invention (solutions where the final concentrations being 100, 50, 25, 12.5, 6.25, 3.13, or 1.56 ng/ml PAI-1) were added at 100 µl/well, and the plate was incubated for 60 minutes at room temperature, as standard.
After incubation, the reaction mixture was removed by suction, and each well was rinsed with Wash Buffer. Next, anti-human PAI-1 monoclonal antibody (PROGEN Inc.) diluted with Buffer C to be 3.0 µg/ml was added to the 96-well plate at 100 µl/well, and the plate was incubated for 1 hour at room temperature. After rinsing each well with Wash Buffer, alkaline phosphatase-labeled goat anti-mouse IgG (H+L) (Jackson ImmunoResearch, Inc.) diluted with Buffer D to be 0.12 µg/ml was added at 100 µl/well, and the plate was incubated for 1 hour at room temperature. After rinsing each well with Wash Buffer, 1.0 mg/ml p-Nitrophenyl Phosphate (SIGMA) was added to the 96-well plate at 100 µl/well to start the reaction. After 30 to 60 minutes, 25 µl of 0.5 N NaOH was added to stop the reaction, and the absorbance was measured at 405 nm using a multiplate reader (GENios; TECAN G.M.B.H.).
Based on the calibration curve prepared from the standard wells, amounts of PAI-1 bound to tPA in the wells that had been treated with the compound according to the present invention were calculated, and the PAI-1 inhibition rates by the compounds according to the present invention were obtained by the following equation. [API-1InhibitionRate(%)] = [1-(amountofPAI-1boundtotPaonthewellbytreatmentwiththecompondaccordingtothepresentinvention)/(amountofPAI-1boundtotPAonthewellbytreatmentwithPAI-1solutionnotincledingthecompondaccordingtotheinvention(solution having the final concentration of 50 nb/ml PAI-1)] × 100 [formula] • <Composition of Buffer A> 0.1 M Tris-HCl, 150 mM NaCl, pH 7.7 • <Composition of Buffer B> 50 mM sodium phosphate, 0.1 M NaCl, 1 mM EDTA, pH 6.6 • <Composition of Buffer C> 50 mM sodium phosphate, 100 mM NaCl, pH 7.4 • <Composition of Buffer D> 0.01 M Tris-HCl, 0.25 M NaCl, pH 8.0 • <Compositon of Wash Buffer> 0.05 % Tween 20, 0.1 % BSA in Buffer A • <Composition of p-Nitrophenyl Phosphate solution> 1 M Diethanolamine 0.5 mM MgCl2, p-Nitrophenyl phosphate, pH 9.8

[6] = read-out: Inhibition Rate of PAI-1 Activity (%), Compound Concentration 5µM
[7] = read-out: Inhibition Rate of PAI-1 Activity (%), Compound Concentration 10µM
[8] = read-out: Inhibition Rate of PAI-1 Activity (%)
[9] = read-out: Inhibition Rate of PAI-1 Activity (%), Compound Concentration 25µM

Compound | inhibition at 0.3 µM [3] | inhibition at 1 µM [3] | inhibition at 3 µM [3] | inhibition at 10 µM [3] | inhibition at 0.1 µM [4] | inhibition at 0.3 µM [4] | inhibition at 1 µM [4] | inhibition at 3 µM [4] | inhibition at 0.3 µM [5] | inhibition at 1 µM [5] | inhibition at 3 µM [5] | inhibition at 5 µM [2, 6] | inhibition at 10 µM [2, 7] | other results
CC(C)(C)c1ccc(COc2ccc(-c3ccc(OC(F)(F)F)cc3)cc2CCC(=O)O)cc1 [Compound 5] | 5% | 15% | 52% | 93% | 2% | 13% | 34% | 90% | 9% | 23% | 67% | – | – | Thrombus Weight ([1]; Dose 10 mg/kg/day): 57.5 ± 5.0 mg; inhibition at 5 µM ([2]; read-out: Inhibition Rate of PAI Activity (%), Compound Concentration 5µM): 87%; inhibition at 10 µM ([2]; read-out: Inhibition Rate of PAI Activity (%), Compound Concentration 10µM): 95%
CN(C(=O)C(=O)O)c1cc(-c2ccc(OC(F)(F)F)cc2)ccc1OCc1ccc(C(C)(C)C)cc1 [Compound 17] | – | – | – | – | – | – | – | – | – | – | – | – | – | Thrombus Weight ([1]; Dose 30 mg/kg/day): 60.4 ± 3.8 mg
CC(C)(C)c1ccc(CN(C(=O)C(=O)O)c2ccc(-c3ccc(OC(F)(F)F)cc3)cc2)cc1 [Compound 129] | 2% | 14% | 46% | 90% | 1% | 3% | 19% | 86% | 5% | 15% | 19% | 75% | 95% | Thrombus Weight ([1]; Dose 10 mg/kg/day): 56.7 ± 3.8 mg
CC(C)(C)c1ccc(Oc2cc(Oc3ccc(OC(F)(F)F)cc3)ccc2CCC(=O)O)cc1 [Compound 90] | 0% | 0% | 77% | 90% | 4% | 6% | 22% | 97% | 2% | 9% | 70% | – | – | inhibition at 5 µM [2, 8]: 42%; inhibition at 10 µM [2, 8]: 83%; inhibition at 25 µM [2, 8]: 96%
CC(C)(C)c1ccc(Oc2ccc(Oc3ccc(OC(F)(F)F)cc3)cc2CCC(=O)O)cc1 [Compound 100] | 0% | 7% | 70% | > 99% | 0% | 2% | 29% | 93% | 7% | 37% | 79% | – | – | inhibition at 5 µM [2, 8]: 64%; inhibition at 10 µM [2, 8]: 91%; inhibition at 25 µM [2, 8]: 98%
CCCOc1ccc(N(Cc2ccc(C(C)(C)C)cc2)C(=O)C(=O)O)cc1-c1ccc(OC(F)(F)F)cc1 [Compound 185] | 3% | 17% | 85% | 76% | 0% | 9% | 34% | > 99% | 10% | 20% | 49% | 81% | 87% | inhibition at 25 µM [2, 9]: 89%
CCCCOc1ccc(-c2ccc(OC(F)(F)F)cc2)cc1N(Cc1ccc(C(C)(C)C)cc1)C(=O)C(=O)O [Compound 189] | 9% | 32% | 93% | > 99% | 4% | 2% | 60% | 97% | 16% | 30% | 70% | 87% | 95% | –
CC(C)(C)c1ccc(COc2ccc(-c3ccc(OC(F)(F)F)cc3)cc2OCC(=O)O)cc1 [Compound 105] | 0% | 6% | 74% | 90% | 2% | 3% | 44% | 99% | 7% | 4% | 33% | 38% | 76% | inhibition at 25 µM [2, 9]: > 99%
